We go through 31 compounds from patent US12545639B2, “3-substituted phenylamidine compounds, preparation and use thereof” (PI INDUSTRIES LTD., priority 2019, dated 2026).

The subject of one experiment is Rhizoctonia solani. Description: Rhizoctonia solani (rice sheath blight/potato black scurf) in vitro test, radial growth on potato dextrose agar. In kind it is cell-based. Conditions: 168 h, 300 ppm in potato dextrose agar, 25° C., 60% relative humidity, seven days, read-out: control compared to the untreated check (radial growth).
The next experiment has as its system Alternaria solani. The experiment is described as follows: Alternaria solani (early blight of tomato/potato) in vitro test, radial growth on potato dextrose agar. Type of experiment: cell-based. Conditions: 168 h, 300 ppm in potato dextrose agar, 25° C., 60% relative humidity, seven days, read-out: control compared to the untreated check (radial growth).
The subject of another experiment is Pyricularia oryzae. The experiment is described as follows: microbe, parasite or virus in culture. Type of experiment: cell-based. The note with it: 168 h, read-out: control compared to the untreated check (radial growth).
The next experiment has as its system Phakopsora pachyrhizi. The experiment is described as follows: Phakopsora pachyrhizi test in soybean, preventive, in vivo on plants. Conditions: in Glycine max, read-out: Efficacy (% control), disease severity compared to the untreated check.

SMILES strings stand for the structures.

With `CCN(C)C=Nc1cc(F)cc(Cc2cccnc2)c1C` [Compound 260, N-ethyl-N′-(5-fluoro-2-methyl-3-(pyridin-3-ylmethyl)phenyl)-N-methylformimidamide], the inhibition of growth at 300 ppm in the experiment on Rhizoctonia solani and with Alternaria solani was ≥ 70% each time. As to `CCN(C)C=Nc1cc(C)cc(Nc2cc(Cl)cc(C(F)(F)F)c2)c1Cl` [Compound 137, N′-(2-chloro-3-((3-chloro-5-(trifluoromethyl)phenyl)amino)-5-methylphenyl)-N-ethyl-N-methylformimidamide], the inhibition of growth at 300 ppm in the experiment with Pyricularia oryzae and with Alternaria solani was ≥ 70% throughout. Consider `CCN(C)C=Nc1cc(C)cc(N(C)c2ncccn2)c1Cl` [Compound 192, N′-(2-chloro-5-methyl-3-(methyl(pyrimidin-2-yl)amino)phenyl)-N-ethyl-N-methylformimidamide], for which the pest or weed control at 500 ppm in the experiment with Phakopsora pachyrhizi is ≥ 70%. `CCN(C)C=Nc1cc(C)cc(N(C)c2ccc(OC)cc2)c1Cl` [Compound 64, N′-(2-chloro-3-((4-methoxyphenyl)(methyl)amino)-5-methylphenyl)-N-ethyl-N-methylformimidamide]: the inhibition of growth at 300 ppm in the experiment on Rhizoctonia solani, in the experiment with Pyricularia oryzae and in the experiment on Alternaria solani was ≥ 70% throughout. `CCN(C)C=Nc1cc(C)cc(Nc2ccccc2OC(F)F)c1Cl` [Compound 177, N′-(2-chloro-3-((2-(difluoromethoxy)phenyl)amino)-5-methylphenyl)-N-ethyl-N-methylformimidamide]: the inhibition of growth at 300 ppm with Rhizoctonia solani, in the experiment on Pyricularia oryzae and in the experiment on Alternaria solani was ≥ 70% in each case.

Turning to `CCN(C)C=Nc1cc(C)cc(Nc2cnccn2)c1Cl` [Compound 194, N′-(2-chloro-5-methyl-3-(pyrazin-2-ylamino)phenyl)-N-ethyl-N-methylformimidamide], the pest or weed control at 500 ppm in the experiment on Phakopsora pachyrhizi was ≥ 70%. Take `CCN(C)C=Nc1cc(C)cc(NC(C)Cc2cnccn2)c1Cl` (stereo not shown) [Compound 195, N′-(2-chloro-5-methyl-3-((1-(pyrazin-2-yl)propan-2-yl)amino)phenyl)-N-ethyl-N-methylformimidamide]: in the experiment on Phakopsora pachyrhizi, the pest or weed control at 500 ppm is ≥ 70%.

For the compound `CCN(C)C=Nc1cc(OC)cc(Cc2ccc(F)c(Cl)c2)c1C` [Compound 282, N′-(3-(3-chloro-4-fluorobenzyl)-5-methoxy-2-methylphenyl)-N-ethyl-N-methylformimidamide], in the experiment with Phakopsora pachyrhizi, the pest or weed control at 500 ppm is ≥ 70%. For `CCN(C)C=Nc1cc(Cl)cc(Nc2cnccn2)c1C` [Compound 211, N′-(5-chloro-2-methyl-3-(pyrazin-2-ylamino)phenyl)-N-ethyl-N-methylformimidamide], the pest or weed control at 500 ppm in the experiment on Phakopsora pachyrhizi is ≥ 70%. Same read-out and setting: the same measure for `CCN(C)C=Nc1cc(OC)cc(Cc2cc(F)ccc2C)c1C` [Compound 281, N-ethyl-N′-(3-(5-fluoro-2-methylbenzyl)-5-methoxy-2-methylphenyl)-N-methylformimidamide]: ≥ 70%.

`CCN(C)C=Nc1cc(F)cc(C(=O)COc2ccc(OC)cc2Cl)c1C` [Compound 304, N′-(3-(2-(2-chloro-4-methoxyphenoxy)acetyl)-5-fluoro-2-methylphenyl)-N-ethyl-N-methylformimidamide]: the inhibition of growth at 300 ppm in the experiment with Pyricularia oryzae and in the experiment with Alternaria solani was ≥ 70% throughout. Consider `CCN(C)C=Nc1cc(C)cc(NCc2cnc(C)cn2)c1Cl` [Compound 196, N′-(2-chloro-5-methyl-3-(((5-methylpyrazin-2-yl)methyl)amino)phenyl)-N-ethyl-N-methylformimidamide], for which the pest or weed control at 500 ppm in the experiment with Phakopsora pachyrhizi was ≥ 70%. The same measure, in the same setting: the same measure for `CCN(C)C=Nc1cc(OC)cc(N(C)c2ccccc2OC)c1C` [Compound 270, N-ethyl-N′-(5-methoxy-3-((2-methoxyphenyl)(methyl)amino)-2-methylphenyl)-N-methylformimidamide]: ≥ 70%. With `CCN(C)C=Nc1cc(C)cc(N(C)c2ncccc2C)c1Cl` [Compound 108, N′-(2-chloro-5-methyl-3-(methyl(3-methylpyridin-2-yl)amino)phenyl)-N-ethyl-N-methylformimidamide], the inhibition of growth at 300 ppm in the experiment with Pyricularia oryzae and in the experiment with Alternaria solani was ≥ 70% in each case.

As for `CCN(C)C=Nc1cc(OC)cc(Cc2cccc(C#N)c2)c1C` [Compound 306, N′-(3-(3-cyanobenzyl)-5-methoxy-2-methylphenyl)-N-ethyl-N-methylformimidamide], the inhibition of growth at 300 ppm in the experiment with Rhizoctonia solani, with Pyricularia oryzae and in the experiment with Alternaria solani was ≥ 70% throughout. In the case of `CCN(C)C=Nc1cc(C)cc(N(C)c2cccc(OC)c2)c1Cl` [Compound 49, N′-(2-chloro-3-((3-methoxyphenyl)(methyl)amino)-5-methylphenyl)-N-ethyl-N-methylformimidamide], the inhibition of growth at 300 ppm with Pyricularia oryzae and with Alternaria solani was ≥ 70% throughout. For the compound `CCN(C)C=Nc1cc(OC)cc(Cc2ccc(Cl)cc2)c1C` [Compound 279, N′-(3-(4-chlorobenzyl)-5-methoxy-2-methylphenyl)-N-ethyl-N-methylformimidamide], the pest or weed control at 500 ppm in the experiment with Phakopsora pachyrhizi was ≥ 70%. In the case of `CCN(C)C=Nc1cc(C)cc(Nc2ncccc2C(F)(F)F)c1Cl` [Compound 135, N′-(2-chloro-5-methyl-3-((3-(trifluoromethyl)pyridin-2-yl)amino)phenyl)-N-ethyl-N-methylformimidamide], the inhibition of growth at 300 ppm in the experiment with Rhizoctonia solani and in the experiment on Pyricularia oryzae was ≥ 70% throughout. Turning to `CCN(C)C=Nc1cc(C)cc(Cc2ccc(F)cc2Br)c1Cl` [Compound 215, N′-(3-(2-bromo-4-fluorobenzyl)-2-chloro-5-methylphenyl)-N-ethyl-N-methylformimidamide], the pest or weed control at 500 ppm in the experiment with Phakopsora pachyrhizi is ≥ 70%. Turning to `CCN(C)C=Nc1cc(C)cc(Nc2cc(F)cc(F)c2)c1Cl` [Compound 78, N′-(2-chloro-3-((3,5-difluorophenyl)amino)-5-methylphenyl)-N-ethyl-N-methylformimidamide], the inhibition of growth at 300 ppm in the experiment on Pyricularia oryzae and with Alternaria solani was ≥ 70% each time. Take `CCN(C)C=Nc1cc(C)cc(Nc2ccc3ncsc3c2)c1Cl` [Compound 228, N′-(3-(benzo[d]thiazol-6-ylamino)-2-chloro-5-methylphenyl)-N-ethyl-N-methylformimidamide]: the inhibition of growth at 300 ppm in the experiment with Pyricularia oryzae and in the experiment with Alternaria solani was ≥ 70% throughout. Take `CCN(C)C=Nc1cc(C)cc(N(C)c2cccc(C(F)(F)F)n2)c1Cl` [Compound 290, N′-(2-chloro-5-methyl-3-(methyl(6-(trifluoromethyl)pyridin-2-yl)amino)phenyl)-N-ethyl-N-methylformimidamide]: the inhibition of growth at 300 ppm in the experiment on Pyricularia oryzae and with Alternaria solani was ≥ 70% throughout. On to `CCN(C)C=Nc1cc(Cl)cc(Nc2cccc(C)c2)c1C` [Compound 154, N′-(5-chloro-2-methyl-3-(m-tolylamino)phenyl)-N-ethyl-N-methylformimidamide], for which the inhibition of growth at 300 ppm in the experiment on Rhizoctonia solani, in the experiment with Pyricularia oryzae and with Alternaria solani was ≥ 70% each time. On to `CCN(C)C=Nc1cc(F)cc(Cc2ccccc2C#N)c1C` [Compound 168, N′-(3-(2-cyanobenzyl)-5-fluoro-2-methylphenyl)-N-ethyl-N-methylformimidamide], for which the inhibition of growth at 300 ppm in the experiment with Rhizoctonia solani, with Pyricularia oryzae and with Alternaria solani was ≥ 70% throughout.

Consider `CCN(C)C=Nc1cc(C)cc(Nc2ccc3c(c2)OCCO3)c1Cl` [Compound 169, N′-(2-chloro-3-((2,3-dihydrobenzo[b][1,4]dioxin-6-yl)amino)-5-methylphenyl)-N-ethyl-N-methylformimidamide], for which the inhibition of growth at 300 ppm with Rhizoctonia solani, with Pyricularia oryzae and in the experiment with Alternaria solani was ≥ 70% each time. As to `CCN(C)C=Nc1cc(Cl)cc(N(C)c2ccc(OC)cc2)c1C` [Compound 167, N′-(5-chloro-3-((4-methoxyphenyl)(methyl)amino)-2-methylphenyl)-N-ethyl-N-methylformimidamide], the inhibition of growth at 300 ppm in the experiment on Rhizoctonia solani, in the experiment on Pyricularia oryzae and with Alternaria solani was ≥ 70% in each case. `CCN(C)C=Nc1cc(C)cc(Cc2ccccc2C#N)c1Cl` [Compound 47, N′-(2-chloro-3-(2-cyanobenzyl)-5-methylphenyl)-N-ethyl-N-methylformimidamide]: the inhibition of growth at 300 ppm in the experiment on Pyricularia oryzae and in the experiment on Alternaria solani was ≥ 70% each time. As for `CCN(C)C=Nc1cc(F)cc(N(C)c2ccc3ncsc3c2)c1C` [Compound 238, N′-(3-(benzo[d]thiazol-6-yl(methyl)amino)-5-fluoro-2-methylphenyl)-N-ethyl-N-methylformimidamide], the inhibition of growth at 300 ppm in the experiment with Pyricularia oryzae and in the experiment on Alternaria solani was ≥ 70% each time.

`CCN(C)C=Nc1cc(C)cc(N(C)c2ccc3ncsc3c2)c1Cl` [Compound 240, N′-(3-(benzo[d]thiazol-6-yl(methyl)amino)-2-chloro-5-methylphenyl)-N-ethyl-N-methylformimidamide]: the inhibition of growth at 300 ppm with Pyricularia oryzae and in the experiment with Alternaria solani was ≥ 70% each time. Consider `CCN(C)C=Nc1cc(C)cc(N(C)c2ccc(F)cc2F)c1Cl` [Compound 82, N′-(2-chloro-3-((2,4-difluorophenyl)(methyl)amino)-5-methylphenyl)-N-ethyl-N-methylformimidamide], for which the inhibition of growth at 300 ppm in the experiment on Rhizoctonia solani, with Pyricularia oryzae and with Alternaria solani was ≥ 70% in each case.

In the case of `CCN(C)C=Nc1cc(F)cc(Cc2ccc(SC)cc2)c1C` [Compound 241, N-ethyl-N′-(5-fluoro-2-methyl-3-(4-(methylthio)benzyl)phenyl)-N-methylformimidamide], the inhibition of growth at 300 ppm in the experiment with Rhizoctonia solani, in the experiment on Pyricularia oryzae and in the experiment on Alternaria solani was ≥ 70% each time.
